For assay [1], the target named is Dual specificity tyrosine-phosphorylation-regulated kinase 1A (Homo sapiens, UniProt Q13627). As to the kind of experiment: Z-lyte Assay. The procedure:
All reactions were performed in duplicate.

Assay [2] addresses Glycogen synthase kinase-3 beta (Homo sapiens, UniProt P49841). The assay can be described thus: Z-lyte Assay.

One may read the EC50 as the concentration at which the effect is half-maximal.

Chain of Glycogen synthase kinase-3 beta (P49841 whole entry): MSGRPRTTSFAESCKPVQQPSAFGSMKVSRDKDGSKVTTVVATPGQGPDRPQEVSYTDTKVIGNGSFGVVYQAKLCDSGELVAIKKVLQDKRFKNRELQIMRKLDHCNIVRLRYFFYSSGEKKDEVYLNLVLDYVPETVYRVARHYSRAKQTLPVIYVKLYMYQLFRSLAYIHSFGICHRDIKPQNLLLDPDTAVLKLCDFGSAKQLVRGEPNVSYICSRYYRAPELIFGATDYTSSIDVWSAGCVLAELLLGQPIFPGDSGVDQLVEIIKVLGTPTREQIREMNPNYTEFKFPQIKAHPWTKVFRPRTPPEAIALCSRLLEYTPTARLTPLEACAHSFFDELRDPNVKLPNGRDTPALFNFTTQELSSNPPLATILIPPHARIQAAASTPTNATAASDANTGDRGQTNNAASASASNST

In the case of `Cc1ncc(-c2ccc3cnc(NC(=O)C4CCC(F)(F)CC4)cc3c2)[nH]1` [US10556885, Compound 121], the figures for the EC50 in assay [1] and in assay [2] were 3.4 nM and 53 nM, respectively.
